The term IC50 denotes the midpoint of a concentration-inhibition curve. A higher IC50 goes with weaker potency. A word on the EC50: it is the concentration giving half of the maximal effect.

Results on one molecule are retold here after paper PMC10056986 (Pharmaceuticals, 2023).

One data set concerns the target CDK2 (Homo sapiens, UniProt P24941). Kind of data set: biochemical.
The target of the next data set is op-mu (Homo sapiens, UniProt P35372). Briefly: cell-based.
Another data set has as its target Beta1 (Homo sapiens, UniProt P08588). Briefly: cell-based.
A further data set deals with T1, CCKa (Homo sapiens, UniProt P32238).
T1 sequence (P32238 1-428): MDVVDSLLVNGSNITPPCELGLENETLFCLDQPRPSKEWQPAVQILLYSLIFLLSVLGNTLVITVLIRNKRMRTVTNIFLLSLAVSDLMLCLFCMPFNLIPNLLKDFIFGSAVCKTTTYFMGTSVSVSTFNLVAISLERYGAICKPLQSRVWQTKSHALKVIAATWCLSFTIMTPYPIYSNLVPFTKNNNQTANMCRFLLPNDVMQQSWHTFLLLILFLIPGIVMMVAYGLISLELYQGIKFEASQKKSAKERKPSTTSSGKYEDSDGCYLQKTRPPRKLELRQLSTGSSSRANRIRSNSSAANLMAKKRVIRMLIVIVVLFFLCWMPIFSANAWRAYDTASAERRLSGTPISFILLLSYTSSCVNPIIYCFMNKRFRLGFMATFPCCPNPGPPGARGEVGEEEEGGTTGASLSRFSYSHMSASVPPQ
Kind of data set: cell-based.

In data set [1] the test system is Influenza virus A/Mal/302/54 (H1N1). Kind of data set: microbe, parasite or virus in culture. The data set is classed as cell-based. Conditions: H1N1, MDCK, read-out: EC50 (mean ± SD).
The next data set relates to HSV-1 GHSV-UL46. Kind of data set: microbe, parasite or virus in culture. The format is cell-based, herpes simplex virus type 1. Conditions: Human alphaherpesvirus 1, Vero C1008, read-out: EC50 for Virus.
The conditions of data set [2]: rat, in vivo, 15 mg/kg.
Setting [3] is: 10,000 nM, read-out: Inhibition at Maximum Concentration (%).

Sequence of Beta1 (P08588 whole entry): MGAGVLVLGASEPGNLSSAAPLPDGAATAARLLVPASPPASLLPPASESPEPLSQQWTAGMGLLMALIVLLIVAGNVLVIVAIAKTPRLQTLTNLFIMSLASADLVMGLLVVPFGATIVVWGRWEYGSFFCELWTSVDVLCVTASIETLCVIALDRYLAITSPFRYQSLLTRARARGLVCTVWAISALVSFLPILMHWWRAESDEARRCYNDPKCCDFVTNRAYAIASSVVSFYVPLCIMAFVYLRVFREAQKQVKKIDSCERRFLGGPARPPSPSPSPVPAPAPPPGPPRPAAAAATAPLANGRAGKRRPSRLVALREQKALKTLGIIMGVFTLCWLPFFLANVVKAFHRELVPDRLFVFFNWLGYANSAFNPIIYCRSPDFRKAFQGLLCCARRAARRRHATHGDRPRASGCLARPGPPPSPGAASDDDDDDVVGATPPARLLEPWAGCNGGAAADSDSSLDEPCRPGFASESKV
Sequence of op-mu (P35372 whole entry): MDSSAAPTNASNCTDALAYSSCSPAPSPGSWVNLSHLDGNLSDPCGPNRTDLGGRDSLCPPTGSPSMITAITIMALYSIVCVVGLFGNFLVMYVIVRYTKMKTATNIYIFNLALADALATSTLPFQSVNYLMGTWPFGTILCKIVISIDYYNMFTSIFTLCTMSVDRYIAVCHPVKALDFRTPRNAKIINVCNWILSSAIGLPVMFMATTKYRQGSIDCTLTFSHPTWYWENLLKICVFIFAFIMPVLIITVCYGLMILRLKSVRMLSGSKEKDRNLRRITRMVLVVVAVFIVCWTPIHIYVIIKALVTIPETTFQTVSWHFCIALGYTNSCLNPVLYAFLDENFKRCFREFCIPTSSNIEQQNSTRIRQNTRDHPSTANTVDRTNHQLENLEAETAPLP

`O=C(O)[C@H]1C2CCC(CC2)[C@@H]1Nc1nc(-c2n[nH]c3ncc(F)cc23)nc(C2CC2)c1F` [ZSP1273]: the IC50 on CDK2, at op-mu, against Beta1 and on CCKa was above 10 µM in each case. For the same molecule, the inhibition at 10 µM is -24.5% on op-mu (setting [3]), -22.7% on Beta1 (setting [3]) and -17.6% on CCKa (setting [3]). Moreover, the values for the half-maximal effective concentration (EC50) (in data set [1]; with HSV-1 GHSV-UL46) were 0.028 ± 0.011 nM and above 10 µM, respectively. Further, in data set [2], the “accumulation (AUC0-last and Cmax, day 7 vs day 1)” value is given as “No significant accumulation”.
